Data: patent US9415106B2, “α-form zinc-phthalocyanine nanowires having enhanced water solubility and water dispersibility, composite of an α-form zinc-phthalocyanine nanowire/phenothiazine, and method for preparing same” (POHANG UNIVERSITY OF SCIENCE AND TECHNOLOGY INDUSTRY …, priority 2011, dated 2016)

Tests used:
[1] = Water solubility, dispersibility and stability of aqueous solution after sonication; assay type: physicochemical
Protocol: An α-form ZnPc nanowire solution was prepared by adding 1 mg of α-form ZnPc nanowires collected from Si substrates into 5 ml of water, followed by sonication for various times in a bath sonicator (UC-10, JEIOTECH). The final solution was transferred for the measurement of optical absorbance using a UV-vis spectrometer (Agilent 8453 spectrophotometer). The concentration of the α-form ZnPc nanowire solution was determined by measurement of optical absorbance at 219 nm. The calibration curve was made by measuring the optical absorbance of a sequentially diluted solution at 219 nm.

KB cells = experiment: ROS generation in KB cells (Image-iT LIVE ROS Kit, H2DCFDA fluorescence); assay type: cell-based, human; settings: irradiated with NIR 808 nm, 3 W/cm^2
Protocol: The PD activity of α-form ZnPc nanowire was proven by detecting reactive oxygen species generated upon illumination with NIR upon irradiation with NIR (λ=808 nm) laser. The reactive oxygen species generated from NIR-activated KB cells containing α-form ZnPc nanowires was assessed using Image-iT™ LIVE Reactive Oxygen Species (ROS) Kit.
This experiment is based on 5-(and-6)-carboxy-2′7′-dichlorodihydrofluorescein diacetate (carboxy-H2DCFDA) as a fluorogenic marker for ROS permeated viable cells. In the presence of ROS, the reduced carboxy-H2DCFDA is supposed to be oxidized to emit bright green fluorescence. Therefore, the oxidatively stressed cells by ROS could be recognized by green fluorescence.
The generation of reactive oxygen species (ROS) was monitored using Image-iT™ LIVE Reactive Oxygen Species Kit based on H2DCFDA (Molecular Probes/Invitrogen), following the manufacturer's protocol. Pre-seeded epidermoid mouth carcinoma cells (KB cells) were incubated with ZnPc nanowire solution (120 mg/L) at 37° C. with 5% CO2 for 18 hours. Then, after washing the cells thoroughly with phosphate buffer saline (PBS), the cells were irradiated with an 808 nm laser. […] In the presence of ROS, the reduced fluorescein compound is oxidized and emits bright green fluorescence. Fluorescence intensity was measured at 529 nm using a fluorescence spectrometer (Cary Eclipse, Varian).

[2] = Photothermal property: temperature change of aqueous solutions upon laser irradiation; assay type: physicochemical; settings: 3 W/cm^2, 3 minutes
Protocol: The PT property was examined by monitoring temperature changes of α-form ZnPc nanowire aqueous solutions (60, 80, 120 mg/L) upon light illumination at two different wavelengths (λ) of 660 nm, at which the highest absorption occurs, and 808 nm, at which most biological systems become transparent, at the power of 3 W/cm^2.
The α-form ZnPc nanowire solution and zinc phthalocyanine tetrasulfonate (ZnPcS4) solutions at various concentrations (60, 80, 120 mg/L) were irradiated using a 660/808 nm laser (diode laser, JENOPTIK unique-mode GmbH, Germany) at 3 W/cm^2. The temperature of each solution was measured with a thermocouple connected temperature controller (Hanyoung, Korea) at 20-second intervals for a total of 3 minutes. Three sets per each solution were measured.

water solubility (qualitative) [1] | temperature of solution upon laser irradiation ([2]; 660 nm (FIGS. 18, 19), from room temperature, 60-120 mg/L) | temperature of solution upon laser irradiation ([2]; 808 nm, 120 mg/L) | Compound | amount of ROS generated (green fluorescence) (KB cells)
did not increase | – | – | [Zn+2].c1ccc2c(c1)-c1nc-2nc2[n-]c(nc3nc([n-]c4nc(n1)-c1ccccc1-4)-c1ccccc1-3)c1ccccc21 [ZnPc powder, zinc-phthalocyanine] | –
– | similar | negligible temperature changes | zinc phthalocyanine tetrasulfonate [ZnPcS4] | insignificant
